In US4968697A, “2-substituted adenosine 5'-carboxamides as antihypertensive agents” (Ciba-Geigy Corporation, priority 1989, dated 1990):
Structures can show the parent of a compound that is named as a salt.

Experiments:
normotensive rat = test: blood pressure lowering effect in normotensive rats (i.v.); format: in vivo; conditions: iv, read-out: dose that lowers blood pressure (as low as)
Experimental: (§1) Indicative of in vivo adenosine receptor agonist activity, the hypotensive activity of the compounds of the invention as well as their effect on heart rate can be measured in normotensive or spontaneous hypertensive rats on intravenous or oral administration.
Typically, the blood pressure lowering effect in normotensive rats can be determined as follows:
Adult male rats weighing 300-400 g are anesthetized using Inactin (100 mg/kg, i.p.). A femoral artery and contralateral vein are cannulated for direct blood pressure measurement and i.v. drug administration, respectively. Animals are allowed a 15 minute equilibration period before testing. Vehicle (1 ml/kg, i.v.) is administered over a 30 second period followed by a 0.3 ml saline flush administered over a 30 second period. Changes in diastolic blood pressure are recorded using a Beckman polygraph while heart rate is recorded as a derivative of the blood pressure pulse. The test compound is administered in the same manner as vehicle and a dose response curve is established. Percent changes in heart rate and blood pressure are recorded.

[1] = tested on: spontaneous hypertensive rat; test: blood pressure lowering effect in the spontaneous hypertensive rat (oral); format: in vivo; conditions: p.o., read-out: dose that lowers blood pressure (as low as)
Experimental: as §1
The blood pressure lowering effect in the spontaneous hypertensive rat is determined on oral administration.

[2] = biological target: T1, adenosine-2 (A-2) receptor (Rattus norvegicus, UniProt P30543); test: in vitro adenosine-2 (A-2) receptor binding: inhibition of specific 3H-NECA binding in rat striatal membranes; set-up: species or system male Sprague-Dawley rats; conditions: 4 nM 3H-NECA, in presence of 50 nM cyclopentyladenosine
T1 construct: striatal membrane preparations from corpus striatum of male Sprague-Dawley rats; from tissue; host or cells: corpus striatum membranes of male Sprague-Dawley rats
T1 sequence (P30543 whole entry): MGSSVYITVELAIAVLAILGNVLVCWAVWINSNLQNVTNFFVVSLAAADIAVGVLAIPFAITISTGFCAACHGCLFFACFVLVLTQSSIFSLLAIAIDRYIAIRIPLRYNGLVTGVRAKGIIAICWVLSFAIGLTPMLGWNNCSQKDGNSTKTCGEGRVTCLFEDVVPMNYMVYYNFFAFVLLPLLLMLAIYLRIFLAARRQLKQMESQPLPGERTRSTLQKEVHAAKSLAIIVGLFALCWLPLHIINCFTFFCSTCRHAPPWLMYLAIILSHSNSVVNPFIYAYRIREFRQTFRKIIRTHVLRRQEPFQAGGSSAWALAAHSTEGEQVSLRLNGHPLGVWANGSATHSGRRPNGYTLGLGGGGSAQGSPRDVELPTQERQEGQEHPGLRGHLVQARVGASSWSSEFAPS
Experimental: The concentration of a particular compound required to displace the specific binding of 4 nM ^3 H-NECA is determined in the presence of 50 nM cyclopentyladenosine.

| IC50 [2] [nM] | SMILES | minimal effective dose (normotensive rat) [mg/kg] | minimal effective dose [1] [mg/kg] |
| --- | --- | --- | --- |
|  | CCNC(=O)[C@H]1O[C@@H](n2cnc3c(N)nc(NCCc4ccc(CCC(=O)O)cc4)nc32)[C@H](O)[C@@H]1O [Example 2g, 2-[p-(2-carboxyethyl)-2-phenethylamino]-adenosine5'-(N-ethyl)-carboxamide] | ~0.005 | ~3 |
| ~13 | CCNC(=O)[C@H]1O[C@@H](n2cnc3c(N)nc(NCCC4CCCCC4)nc32)[C@H](O)[C@@H]1O [Example 2n, 2-(2-cyclohexylethylamino)-adenosine-5'-(N-ethyl)carboxamide hydrochloride] |  |  |
